Data from patent publication US12478626B2, “Kinase mutants and uses thereof” (SIB Swiss Institute of Bioinformatics, priority 2017, dated 2025).

Molecular target: T1, wild type Zap-70 (Homo sapiens, UniProt P43403)
T1 sequence (P43403 1-619): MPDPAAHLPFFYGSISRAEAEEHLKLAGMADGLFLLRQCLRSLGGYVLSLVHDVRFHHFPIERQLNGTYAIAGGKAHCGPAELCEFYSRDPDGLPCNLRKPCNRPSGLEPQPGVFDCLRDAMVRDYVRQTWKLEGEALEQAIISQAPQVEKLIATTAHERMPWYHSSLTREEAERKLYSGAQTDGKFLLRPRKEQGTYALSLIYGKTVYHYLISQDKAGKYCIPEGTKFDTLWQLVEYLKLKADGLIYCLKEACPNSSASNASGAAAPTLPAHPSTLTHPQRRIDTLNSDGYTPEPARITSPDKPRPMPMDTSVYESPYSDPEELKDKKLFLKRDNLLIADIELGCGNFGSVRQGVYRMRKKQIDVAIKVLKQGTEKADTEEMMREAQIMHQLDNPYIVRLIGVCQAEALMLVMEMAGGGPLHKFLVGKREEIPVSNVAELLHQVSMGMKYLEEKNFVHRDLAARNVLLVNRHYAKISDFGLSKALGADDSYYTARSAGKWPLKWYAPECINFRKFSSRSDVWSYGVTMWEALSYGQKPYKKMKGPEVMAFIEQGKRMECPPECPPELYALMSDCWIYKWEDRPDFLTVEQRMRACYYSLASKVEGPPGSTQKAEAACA
Assay: not given
Conditions: Karaman et al.; cited from earlier work

Row | Compound | inhibitory effect on the wild type Zap-70
1 | CS(=O)(=O)CCNCc1ccc(-c2ccc3ncnc(Nc4ccc(OCc5cccc(F)c5)c(Cl)c4)c3c2)o1 [Lapatinib] | no or little inhibitory effect

Test system: Zap-70 mutants in P116 cells
Assay: Inhibition of IL-2 production by TKI at two concentrations, Zap-70 mutants versus WT
Conditions: 500 nM and 1 or […], 24 h and 48 h

Row | Compound | inhibition in production of IL-2 in mutants compared to Zap-70 WT
2 | CCOc1cc2ncc(C#N)c(Nc3ccc(OCc4ccccn4)c(Cl)c3)c2cc1NC(=O)/C=C/CN(C)C [Neratinib] | No significantly different inhibition
3 | C=CC(=O)Nc1cccc(Nc2nc(Nc3ccc(N4CCN(C(C)=O)CC4)cc3OC)ncc2C(F)(F)F)c1 [CO-1686] | No significantly different inhibition
4 | C#Cc1cccc(Nc2ncnc3cc(OCCOC)c(OCCOC)cc23)c1 [Erlotinib] | higher in mutants than WT
5 | CS(=O)(=O)CCNCc1ccc(-c2ccc3ncnc(Nc4ccc(OCc5cccc(F)c5)c(Cl)c4)c3c2)o1 [Lapatinib] | increase of cell response
6 | Crizotinib | increase of cell response
